The target of assay [1] is T1, Lysine-specific demethylase 5A (Homo sapiens, UniProt P29375). Kind of assay: Inhibition of KDM5A (unknown origin) using substrate peptide/ascorbate/2-OG/ Fe(2) as substrate at 10 uM preincubated for 15 mins followed by addition of substrate peptide/ ascorbate/2-OG/ Fe(2) measured after 1 hr by AlphaLISA method. In general terms: In Alpha technology, singlet oxygen from a donor bead excites a nearby acceptor bead.

The target of assay [2] is T1, Lysine-specific demethylase 5A. Kind of assay: Inhibition of KDM5A (unknown origin) using substrate peptide/ascorbate/2-OG/ Fe(2) as substrate preincubated for 15 mins followed by addition of substrate peptide/ ascorbate/2-OG/ Fe(2) measured after 1 hr by AlphaLISA method.
Assay [3] has the same target. Put plainly: […] of KDM5A in human ZR-75-1 cells effect on H3K4me3 expression after 48 hrs by Western blot analysis. In kind it is cell-based. (Immunoblotting shows a protein as a band on a membrane.)
The target of assay [4] is Probable JmjC domain-containing histone demethylation protein 2C (Homo sapiens, UniProt Q15652). Put plainly: Inhibition of KDM3C (unknown origin) using substrate peptide/ascorbate/2-OG/ Fe(2) as substrate preincubated for 15 mins followed by addition of substrate peptide/ ascorbate/2-OG/ Fe(2) measured after 1 hr by AlphaLISA method.
Assay [5] concerns the target T2, Lysine-specific demethylase 3A (Homo sapiens, UniProt Q9Y4C1).
T2 sequence (Q9Y4C1 whole entry): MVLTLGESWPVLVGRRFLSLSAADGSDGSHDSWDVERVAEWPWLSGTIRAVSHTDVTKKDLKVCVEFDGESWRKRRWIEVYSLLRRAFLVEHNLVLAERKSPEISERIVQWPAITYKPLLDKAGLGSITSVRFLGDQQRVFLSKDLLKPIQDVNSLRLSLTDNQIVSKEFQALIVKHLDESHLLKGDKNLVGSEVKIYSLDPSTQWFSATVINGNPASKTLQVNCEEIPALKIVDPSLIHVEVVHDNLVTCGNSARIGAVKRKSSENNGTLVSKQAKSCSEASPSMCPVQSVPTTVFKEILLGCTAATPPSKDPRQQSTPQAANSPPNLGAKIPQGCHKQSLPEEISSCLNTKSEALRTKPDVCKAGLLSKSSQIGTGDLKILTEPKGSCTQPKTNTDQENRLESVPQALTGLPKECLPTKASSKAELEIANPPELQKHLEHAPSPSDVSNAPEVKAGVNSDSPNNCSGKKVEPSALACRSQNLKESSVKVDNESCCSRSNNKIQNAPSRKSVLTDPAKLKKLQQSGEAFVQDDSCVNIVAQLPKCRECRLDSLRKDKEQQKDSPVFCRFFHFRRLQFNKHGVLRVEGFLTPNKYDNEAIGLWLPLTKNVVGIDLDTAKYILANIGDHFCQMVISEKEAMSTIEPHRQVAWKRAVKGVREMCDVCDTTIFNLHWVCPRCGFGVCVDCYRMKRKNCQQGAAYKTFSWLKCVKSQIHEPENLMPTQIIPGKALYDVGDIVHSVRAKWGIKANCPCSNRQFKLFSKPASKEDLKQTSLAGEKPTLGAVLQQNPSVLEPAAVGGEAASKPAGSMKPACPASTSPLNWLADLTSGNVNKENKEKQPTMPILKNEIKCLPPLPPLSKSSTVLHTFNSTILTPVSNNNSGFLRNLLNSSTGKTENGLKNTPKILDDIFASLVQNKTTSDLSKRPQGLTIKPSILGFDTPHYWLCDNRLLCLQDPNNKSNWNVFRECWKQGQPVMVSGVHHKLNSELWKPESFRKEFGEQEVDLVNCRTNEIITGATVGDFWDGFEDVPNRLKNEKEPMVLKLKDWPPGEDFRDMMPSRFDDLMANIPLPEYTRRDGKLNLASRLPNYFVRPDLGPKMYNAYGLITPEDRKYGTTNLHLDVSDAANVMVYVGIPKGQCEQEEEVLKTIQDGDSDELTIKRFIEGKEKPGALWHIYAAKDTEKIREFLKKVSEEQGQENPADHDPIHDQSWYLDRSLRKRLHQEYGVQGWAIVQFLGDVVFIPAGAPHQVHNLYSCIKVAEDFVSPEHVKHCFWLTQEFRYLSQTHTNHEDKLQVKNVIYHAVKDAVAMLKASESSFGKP
Put plainly: Inhibition of KDM3A (unknown origin) using substrate peptide/ascorbate/2-OG/ Fe(2) as substrate preincubated for 15 mins followed by addition of substrate peptide/ ascorbate/2-OG/ Fe(2) measured after 1 hr by AlphaLISA method.

The target of assay [6] is Lysine-specific demethylase 5B (Homo sapiens, UniProt Q9UGL1). Put plainly: Inhibition of KDM5B (unknown origin) using substrate peptide/ascorbate/2-OG/ Fe(2) as substrate preincubated for 15 mins followed by addition of substrate peptide/ ascorbate/2-OG/ Fe(2) measured after 1 hr by AlphaLISA method.
For assay [7], the target named is Lysine-specific demethylase 6B (Homo sapiens, UniProt O15054). Put plainly: Inhibition of KDM6B (unknown origin) using substrate peptide/ascorbate/2-OG/ Fe(2) as substrate preincubated for 15 mins followed by addition of substrate peptide/ ascorbate/2-OG/ Fe(2) measured after 1 hr by AlphaLISA method.
For assay [8], the target named is T3, Lysine-specific demethylase 4E (Homo sapiens, UniProt B2RXH2).
T3 sequence (B2RXH2 whole entry): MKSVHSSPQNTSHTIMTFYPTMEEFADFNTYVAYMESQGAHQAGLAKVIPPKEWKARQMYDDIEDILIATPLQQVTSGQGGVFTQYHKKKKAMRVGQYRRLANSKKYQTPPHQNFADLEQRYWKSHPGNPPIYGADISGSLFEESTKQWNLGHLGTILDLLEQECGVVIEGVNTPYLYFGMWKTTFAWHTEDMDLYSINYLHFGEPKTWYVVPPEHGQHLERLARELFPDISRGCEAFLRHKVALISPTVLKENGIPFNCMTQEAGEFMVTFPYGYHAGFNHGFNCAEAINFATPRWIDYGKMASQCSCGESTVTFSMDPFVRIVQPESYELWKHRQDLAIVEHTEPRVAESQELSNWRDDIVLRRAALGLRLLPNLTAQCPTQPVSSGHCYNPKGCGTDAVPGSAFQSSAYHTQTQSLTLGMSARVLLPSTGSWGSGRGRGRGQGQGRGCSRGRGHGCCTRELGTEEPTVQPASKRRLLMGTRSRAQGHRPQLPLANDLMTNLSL
Kind of assay: Inhibition of KDM4E (unknown origin) using substrate peptide/ascorbate/2-OG/ Fe(2) as substrate preincubated for 15 mins followed by addition of substrate peptide/ ascorbate/2-OG/ Fe(2) measured after 1 hr by AlphaLISA method.

Consider 32 molecules from ChEMBL document CHEMBL3792324, “Discovery of KDM5A inhibitors: Homology modeling, virtual screening and structure-activity relationship analysis” (Bioorg Med Chem Lett, 2016).

Activity calls are given as the source filed them. No cut-off for these calls is given here.

T1 sequence (P29375 whole entry): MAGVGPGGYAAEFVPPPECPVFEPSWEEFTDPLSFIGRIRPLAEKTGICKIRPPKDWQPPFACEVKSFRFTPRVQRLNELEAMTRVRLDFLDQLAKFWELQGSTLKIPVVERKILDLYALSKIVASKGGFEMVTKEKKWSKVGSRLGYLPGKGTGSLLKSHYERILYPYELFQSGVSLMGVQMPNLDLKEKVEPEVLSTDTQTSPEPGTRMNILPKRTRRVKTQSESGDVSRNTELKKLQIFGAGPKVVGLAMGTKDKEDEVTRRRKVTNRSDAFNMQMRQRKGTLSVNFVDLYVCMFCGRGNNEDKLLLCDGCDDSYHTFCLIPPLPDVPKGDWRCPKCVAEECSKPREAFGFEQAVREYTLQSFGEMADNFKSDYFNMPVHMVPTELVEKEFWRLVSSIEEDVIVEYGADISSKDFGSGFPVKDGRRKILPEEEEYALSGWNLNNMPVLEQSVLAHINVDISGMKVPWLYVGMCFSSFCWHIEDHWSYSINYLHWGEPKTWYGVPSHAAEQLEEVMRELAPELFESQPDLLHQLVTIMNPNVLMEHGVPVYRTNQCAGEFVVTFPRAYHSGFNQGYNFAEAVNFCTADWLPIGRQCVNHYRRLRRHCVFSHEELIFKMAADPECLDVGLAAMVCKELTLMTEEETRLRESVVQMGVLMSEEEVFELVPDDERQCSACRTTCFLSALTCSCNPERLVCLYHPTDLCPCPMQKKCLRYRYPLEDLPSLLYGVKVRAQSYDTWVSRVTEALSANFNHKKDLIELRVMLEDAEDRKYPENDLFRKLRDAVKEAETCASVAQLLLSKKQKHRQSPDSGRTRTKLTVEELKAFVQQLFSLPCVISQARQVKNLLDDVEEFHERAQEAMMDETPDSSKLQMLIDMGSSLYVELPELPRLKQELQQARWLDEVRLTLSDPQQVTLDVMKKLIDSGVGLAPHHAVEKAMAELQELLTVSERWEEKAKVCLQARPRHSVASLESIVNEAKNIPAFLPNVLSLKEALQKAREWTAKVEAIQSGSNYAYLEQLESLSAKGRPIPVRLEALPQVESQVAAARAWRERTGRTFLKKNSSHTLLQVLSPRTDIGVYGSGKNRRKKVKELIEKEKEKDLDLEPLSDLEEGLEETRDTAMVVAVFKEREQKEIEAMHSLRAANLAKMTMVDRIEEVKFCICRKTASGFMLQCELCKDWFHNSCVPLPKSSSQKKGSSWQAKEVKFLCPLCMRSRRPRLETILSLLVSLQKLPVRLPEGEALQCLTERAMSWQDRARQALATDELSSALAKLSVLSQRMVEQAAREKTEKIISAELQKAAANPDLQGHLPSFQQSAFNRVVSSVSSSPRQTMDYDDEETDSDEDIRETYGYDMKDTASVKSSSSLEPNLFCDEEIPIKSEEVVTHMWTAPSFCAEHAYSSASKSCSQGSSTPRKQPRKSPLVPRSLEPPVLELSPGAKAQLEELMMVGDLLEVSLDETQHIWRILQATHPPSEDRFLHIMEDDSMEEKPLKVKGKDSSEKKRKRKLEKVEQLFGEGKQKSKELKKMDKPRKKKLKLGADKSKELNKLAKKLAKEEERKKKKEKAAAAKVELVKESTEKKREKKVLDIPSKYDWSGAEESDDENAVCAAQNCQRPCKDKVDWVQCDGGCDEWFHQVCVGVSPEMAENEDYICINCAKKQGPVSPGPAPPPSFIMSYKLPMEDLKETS
Lysine-specific demethylase 6B, sequence (O15054 whole entry): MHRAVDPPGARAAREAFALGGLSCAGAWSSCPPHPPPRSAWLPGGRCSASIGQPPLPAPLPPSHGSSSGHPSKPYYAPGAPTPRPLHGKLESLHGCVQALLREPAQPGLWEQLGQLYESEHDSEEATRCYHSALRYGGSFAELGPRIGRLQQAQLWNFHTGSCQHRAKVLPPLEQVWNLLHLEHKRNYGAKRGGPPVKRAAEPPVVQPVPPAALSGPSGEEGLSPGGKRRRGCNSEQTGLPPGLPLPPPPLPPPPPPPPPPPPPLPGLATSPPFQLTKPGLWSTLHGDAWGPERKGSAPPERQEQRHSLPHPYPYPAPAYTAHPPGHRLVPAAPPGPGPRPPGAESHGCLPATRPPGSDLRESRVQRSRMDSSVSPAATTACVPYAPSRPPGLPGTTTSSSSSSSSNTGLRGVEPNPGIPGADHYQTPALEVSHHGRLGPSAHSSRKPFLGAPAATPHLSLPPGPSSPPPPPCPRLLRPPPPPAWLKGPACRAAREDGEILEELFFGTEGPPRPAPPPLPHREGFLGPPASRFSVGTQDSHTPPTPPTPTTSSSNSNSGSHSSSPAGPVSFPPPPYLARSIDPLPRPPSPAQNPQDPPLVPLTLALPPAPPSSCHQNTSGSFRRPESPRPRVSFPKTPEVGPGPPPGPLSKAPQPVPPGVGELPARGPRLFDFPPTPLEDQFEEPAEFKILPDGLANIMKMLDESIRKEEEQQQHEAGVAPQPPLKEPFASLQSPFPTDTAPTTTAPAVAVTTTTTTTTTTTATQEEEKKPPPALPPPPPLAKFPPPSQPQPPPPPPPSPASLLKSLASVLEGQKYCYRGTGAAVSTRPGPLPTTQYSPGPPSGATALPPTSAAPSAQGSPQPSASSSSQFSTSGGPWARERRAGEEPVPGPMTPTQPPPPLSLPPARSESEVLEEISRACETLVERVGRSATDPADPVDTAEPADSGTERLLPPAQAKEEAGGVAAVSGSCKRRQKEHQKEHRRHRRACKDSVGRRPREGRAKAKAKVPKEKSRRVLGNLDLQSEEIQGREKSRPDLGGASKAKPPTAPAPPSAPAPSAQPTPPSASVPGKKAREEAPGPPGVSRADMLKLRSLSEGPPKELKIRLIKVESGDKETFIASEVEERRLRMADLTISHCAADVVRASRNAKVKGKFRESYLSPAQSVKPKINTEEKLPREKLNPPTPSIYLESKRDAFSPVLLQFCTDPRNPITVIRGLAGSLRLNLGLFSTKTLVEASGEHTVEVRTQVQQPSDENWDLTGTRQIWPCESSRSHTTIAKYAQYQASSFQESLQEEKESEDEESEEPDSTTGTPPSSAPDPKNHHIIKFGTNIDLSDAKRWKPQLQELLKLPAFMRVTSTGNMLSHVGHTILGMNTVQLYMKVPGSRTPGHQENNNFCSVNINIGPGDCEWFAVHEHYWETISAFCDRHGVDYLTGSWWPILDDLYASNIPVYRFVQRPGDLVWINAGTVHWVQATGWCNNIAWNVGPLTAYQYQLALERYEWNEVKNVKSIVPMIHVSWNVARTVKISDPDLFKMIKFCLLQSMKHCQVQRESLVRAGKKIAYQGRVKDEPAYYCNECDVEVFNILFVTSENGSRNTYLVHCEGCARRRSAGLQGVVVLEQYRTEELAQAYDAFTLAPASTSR
Lysine-specific demethylase 5B, sequence (Q9UGL1 whole entry): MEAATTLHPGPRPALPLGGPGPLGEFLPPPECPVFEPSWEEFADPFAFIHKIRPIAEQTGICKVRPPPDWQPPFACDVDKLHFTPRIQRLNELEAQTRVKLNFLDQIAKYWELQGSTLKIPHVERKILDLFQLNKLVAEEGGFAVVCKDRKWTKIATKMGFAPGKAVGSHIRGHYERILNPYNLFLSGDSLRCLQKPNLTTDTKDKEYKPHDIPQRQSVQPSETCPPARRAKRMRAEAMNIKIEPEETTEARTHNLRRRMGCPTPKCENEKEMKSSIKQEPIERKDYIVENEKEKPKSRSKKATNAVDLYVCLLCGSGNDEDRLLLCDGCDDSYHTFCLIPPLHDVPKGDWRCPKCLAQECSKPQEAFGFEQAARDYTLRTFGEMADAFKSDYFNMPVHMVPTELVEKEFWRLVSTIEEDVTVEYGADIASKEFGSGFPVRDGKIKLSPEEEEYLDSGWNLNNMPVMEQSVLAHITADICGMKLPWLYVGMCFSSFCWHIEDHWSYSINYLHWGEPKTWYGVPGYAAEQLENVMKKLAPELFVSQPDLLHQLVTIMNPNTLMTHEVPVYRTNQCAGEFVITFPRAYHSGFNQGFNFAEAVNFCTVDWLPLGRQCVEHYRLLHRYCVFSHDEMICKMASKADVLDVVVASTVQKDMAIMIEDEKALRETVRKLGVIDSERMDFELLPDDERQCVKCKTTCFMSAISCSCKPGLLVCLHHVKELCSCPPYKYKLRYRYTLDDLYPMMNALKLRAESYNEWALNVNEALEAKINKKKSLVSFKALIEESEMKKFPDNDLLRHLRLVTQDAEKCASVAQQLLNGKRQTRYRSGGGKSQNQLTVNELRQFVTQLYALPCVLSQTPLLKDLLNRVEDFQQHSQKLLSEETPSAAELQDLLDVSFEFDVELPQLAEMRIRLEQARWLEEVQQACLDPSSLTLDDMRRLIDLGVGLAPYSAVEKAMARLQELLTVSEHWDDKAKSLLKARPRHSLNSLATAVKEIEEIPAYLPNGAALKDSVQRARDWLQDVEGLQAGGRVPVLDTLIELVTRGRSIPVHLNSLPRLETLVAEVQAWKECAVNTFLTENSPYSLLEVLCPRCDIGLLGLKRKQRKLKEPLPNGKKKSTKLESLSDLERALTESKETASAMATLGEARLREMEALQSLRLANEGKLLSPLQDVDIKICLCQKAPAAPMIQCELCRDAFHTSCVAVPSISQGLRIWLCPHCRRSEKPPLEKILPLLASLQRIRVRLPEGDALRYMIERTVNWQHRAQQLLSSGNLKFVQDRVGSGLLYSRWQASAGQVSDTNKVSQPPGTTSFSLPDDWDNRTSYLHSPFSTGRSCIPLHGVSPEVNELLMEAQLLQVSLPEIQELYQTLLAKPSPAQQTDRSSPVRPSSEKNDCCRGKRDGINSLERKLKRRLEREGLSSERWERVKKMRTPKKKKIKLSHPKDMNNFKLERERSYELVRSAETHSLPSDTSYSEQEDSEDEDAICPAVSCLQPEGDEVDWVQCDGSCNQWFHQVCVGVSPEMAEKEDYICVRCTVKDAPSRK

As usually defined, the inhibition is the change of the read-out against control, counted positive when it falls. In the case of `O=C(O)c1ccnc(N/N=C/c2ccccc2)n1`, in assay [1], the inhibition came to 0%.
Consider `Oc1ccccc1/C=N/Nc1nccc(N2CCOCC2)n1`, for which the inhibition in assay [1] was determined as 42%.
Usually IC50 stands for the point on the concentration scale where inhibition reaches its midpoint. A low value points to inhibition by little substance. In assay [2], `CCN(C1=C(Cl)C(=O)N(c2cccc(C)c2C)C1=O)c1ccccc1` registered an IC50 of 83 µM.
`Cc1ccc(C(=O)c2coc3c2C(=O)C(=O)C(Br)=C3)cc1` showed an IC50 in assay [2] of 5 µM.
For `O=C(O)c1ccnc(N/N=C/c2ccco2)n1`, the inhibition in assay [1] was 3%.
In the case of `O=C(COc1cc(O)c2c(=O)cc(-c3ccccc3)oc2c1)OCc1ccccc1`, the IC50 in assay [2] worked out at 4.2 µM.
With `O=C(O)c1ccnc(N/N=C/c2ccccc2O)n1`, in assay [1], the inhibition worked out at 88%.
Regarding `Oc1ccccc1/C=N/Nc1ncc(F)c(N2CCOCC2)n1`, the inhibition in assay [1] was found to be 58%. In assay [2], this molecule registered an IC50 of 2.3 µM.
As for `NNc1nccc(N2CCOCC2)n1`, in assay [3], the outcome was inactive.
Regarding `NNc1nccc(C(F)(F)F)n1`, the result in assay [3] was inactive.
Consider `NNc1ncc(F)c(N2CCOCC2)n1`, for which the inhibition in assay [1] turned out to be 0%.
In the case of `Cc1ccnc(NN)n1`, in assay [1], the inhibition is -6%. Moreover, the result in assay [3] was inactive.
For `NNc1nccc(-c2cccc(C(=O)O)c2)n1`, in assay [1], the inhibition was 26%.
For `NNc1ncccn1`, the inhibition in assay [1] stood at 8%.
As for `COc1ccc(Oc2ccnc(NN)n2)cc1`, in assay [3], the result was inactive.
The molecule `c1ccc(Cc2nnc3sc(-c4ccccn4)nn23)cc1` showed an IC50 in assay [2] of 25 µM.
For `NNc1nccc(C(=O)O)n1`, the IC50 in assay [4] is 1.9 µM; in assay [5], 43 µM; in assay [6], above 100 µM; in assay [7], above 100 µM; in assay [2], 0.22 µM; in assay [8], 13 µM. The inhibition in assay [1] came out at 99%.
In turn, `O=C(NNc1c2ccccc2nc2ccccc12)c1ccccn1` showed an IC50 in assay [2] of 7 µM.
Consider `Oc1ccccc1/C=N/Nc1ncc(Cl)cn1`, for which the inhibition in assay [1] was 19%.
Turning to `Oc1ccccc1/C=N/Nc1ncc(F)cn1`, the outcome in assay [3] was inactive.
Same read-out and setting: as for `NNc1ncc2ccccc2n1`, the entry is “inactive”.
`Cc1ccnc(N/N=C/c2ccccc2O)n1`: the inhibition in assay [1] amounted to 44%.
Turning to `NNc1nccc(Oc2ccccc2)n1`, the outcome in assay [3] was inactive.
For `NNc1nccc(Oc2ccc(F)cc2)n1`, the outcome in assay [3] was inactive.
`NNc1ncc(Cl)cn1`: the result in assay [3] was inactive.
`O=c1c2ccccc2oc2c(O)ccc(O)c12` registered an IC50 in assay [2] of 25 µM.
As to `N#Cc1ccc(Nc2nc(NN)ncc2[N+](=O)[O-])cc1`, the inhibition in assay [1] was 14%.
Molecule `NNC(=O)c1ccc(O)cc1` showed an IC50 in assay [2] of 13 µM.
As to `NNc1ncc(F)cn1`, in assay [1], the inhibition stood at 10%.
Still for that read-out and setting: as for `Oc1ccccc1/C=N/Nc1ncccn1`, the figure is 32%.
`CNc1ccccc(C(=O)/C=C/c2cccc(Oc3ccccc3)c2)c1=O` registered an IC50 in assay [2] of 64 µM.
In the case of `O=C1c2ccccc2C(=O)c2c1ccc1c(=O)n(-c3ccc(Cl)cc3)[nH]c21`, the IC50 in assay [2] is 13 µM.
